Measurements as given in the NIST ThermoML archive (doi:10.1016/j.fluid.2005.02.015).

Key:
[1] = xn = mol fraction of the nth substance listed; conditions: 298.15 K, 101.33 kPa, Liquid
[2] = Liquid; for mass density: 298.15 K, 101.33 kPa
[3] = refractive index (Na D-line) (dimensionless); conditions: 293.15 K; 101.33 kPa; Liquid; Standard Abbe refractometry

CCCCOC(=O)[C@H](C)O [butyl L-lactate] + CCCCO
[1]
Conditions | mass density [kg/m3]
x2 = 0 | 982.178
x2 = 0.0989 | 971.809
x2 = 0.1806 | 962.459
x2 = 0.2599 | 952.704
x2 = 0.3973 | 933.863
x2 = 0.5154 | 915.521
x2 = 0.5669 | 906.818
x2 = 0.6645 | 888.883
x2 = 0.7069 | 880.503
x2 = 0.7854 | 863.836
x2 = 0.8546 | 847.901
x2 = 0.9174 | 832.199
x2 = 0.9728 | 817.297

CCOC(=O)[C@H](C)O [(S)-(-)-ethyl lactate] + CCO
[1]
Conditions | mass density [kg/m3]
x2 = 0 | 1032.94
x2 = 0.1242 | 1018.42
x2 = 0.2256 | 1004.73
x2 = 0.312 | 991.37
x2 = 0.3921 | 977.447
x2 = 0.5236 | 950.894
x2 = 0.5735 | 939.295
x2 = 0.6735 | 913.364
x2 = 0.7574 | 887.971
x2 = 0.7941 | 875.598
x2 = 0.8267 | 863.971
x2 = 0.8559 | 852.975
x2 = 0.9578 | 809.773

CC(C)OC(=O)[C@H](C)O [isopropyl (S)-2-hydroxypropionate] + CC(C)O
[1]
Conditions | mass density [kg/m3]
x2 = 0 | 986.942
x2 = 0.087 | 976.815
x2 = 0.197 | 962.69
x2 = 0.281 | 950.807
x2 = 0.3554 | 939.404
x2 = 0.542 | 906.498
x2 = 0.5652 | 901.903
x2 = 0.6921 | 874.425
x2 = 0.7733 | 854.447
x2 = 0.8365 | 837.361
x2 = 0.8675 | 828.428
x2 = 0.9249 | 810.801
x2 = 0.9516 | 802.104

CCOC(=O)[C@H](C)O [(S)-(-)-ethyl lactate]
Conditions | mass density [kg/m3] | refractive index
[2] | 1032.94 | –
[3] | – | 1.4129

Conditions | vapor or sublimation pressure [kPa]
[2], 427.65 K | 101.33

CC(C)OC(=O)[C@H](C)O [isopropyl (S)-2-hydroxypropionate]
Conditions | mass density [kg/m3] | refractive index
[2] | 986.942 | –
[3] | – | 1.4105

[2]
Conditions | vapor or sublimation pressure [kPa]
355 K | 7.424
360 K | 9.156
365 K | 11.22
370 K | 13.68
375 K | 16.58
380 K | 20
385 K | 23.99
390 K | 28.63
395 K | 34.02
400 K | 40.24
405 K | 47.39
410 K | 55.59
415 K | 64.93
420 K | 75.56
425 K | 87.6
430 K | 101.19
430.21 K | 101.33

CCCCOC(=O)[C@H](C)O [butyl L-lactate]
Conditions | mass density [kg/m3] | refractive index
[2] | 982.178 | –
[3] | – | 1.4218

[2]
Conditions | vapor or sublimation pressure [kPa]
390 K | 10.62
395 K | 13.01
400 K | 15.8
405 K | 19.04
410 K | 22.79
415 K | 27.09
420 K | 32
425 K | 37.58
430 K | 43.87
435 K | 50.94
440 K | 58.84
445 K | 67.65
450 K | 77.41
455 K | 88.19
460 K | 100.05
460.75 K | 101.33

CCCCO [butan-1-ol] + CCCCOC(=O)[C@H](C)O
Conditions | mass density [kg/m3]
[1], x1 = 1 | 809.572

CCO [ethanol] + CCOC(=O)[C@H](C)O
Conditions | mass density [kg/m3]
[1], x1 = 1 | 789.261

CCCCO [butan-1-ol]
Conditions | mass density [kg/m3] | refractive index
[2] | 809.572 | –
[3] | – | 1.3993

Conditions | vapor or sublimation pressure [kPa]
[2], 390.88 K | 101.33

CC(C)O [propan-2-ol]
Conditions | mass density [kg/m3] | refractive index
[2] | 785.428 | –
[3] | – | 1.3774

Conditions | vapor or sublimation pressure [kPa]
[2], 355.36 K | 101.33

CCO [ethanol]
Conditions | mass density [kg/m3] | refractive index
[2] | 789.261 | –
[3] | – | 1.3614

Conditions | vapor or sublimation pressure [kPa]
[2], 351.44 K | 101.33

CC(C)O [propan-2-ol] + CC(C)OC(=O)[C@H](C)O
Conditions | mass density [kg/m3]
[1], x1 = 1 | 785.428
